The values below come from patent US9181277B2, “Aminoquinazoline derivatives and their salts and methods of use” (SUNSHINE LAKE PHARMA CO., LTD., priority 2011, dated 2015).

Sequence of EGFR Kinase (P00533 25-1210): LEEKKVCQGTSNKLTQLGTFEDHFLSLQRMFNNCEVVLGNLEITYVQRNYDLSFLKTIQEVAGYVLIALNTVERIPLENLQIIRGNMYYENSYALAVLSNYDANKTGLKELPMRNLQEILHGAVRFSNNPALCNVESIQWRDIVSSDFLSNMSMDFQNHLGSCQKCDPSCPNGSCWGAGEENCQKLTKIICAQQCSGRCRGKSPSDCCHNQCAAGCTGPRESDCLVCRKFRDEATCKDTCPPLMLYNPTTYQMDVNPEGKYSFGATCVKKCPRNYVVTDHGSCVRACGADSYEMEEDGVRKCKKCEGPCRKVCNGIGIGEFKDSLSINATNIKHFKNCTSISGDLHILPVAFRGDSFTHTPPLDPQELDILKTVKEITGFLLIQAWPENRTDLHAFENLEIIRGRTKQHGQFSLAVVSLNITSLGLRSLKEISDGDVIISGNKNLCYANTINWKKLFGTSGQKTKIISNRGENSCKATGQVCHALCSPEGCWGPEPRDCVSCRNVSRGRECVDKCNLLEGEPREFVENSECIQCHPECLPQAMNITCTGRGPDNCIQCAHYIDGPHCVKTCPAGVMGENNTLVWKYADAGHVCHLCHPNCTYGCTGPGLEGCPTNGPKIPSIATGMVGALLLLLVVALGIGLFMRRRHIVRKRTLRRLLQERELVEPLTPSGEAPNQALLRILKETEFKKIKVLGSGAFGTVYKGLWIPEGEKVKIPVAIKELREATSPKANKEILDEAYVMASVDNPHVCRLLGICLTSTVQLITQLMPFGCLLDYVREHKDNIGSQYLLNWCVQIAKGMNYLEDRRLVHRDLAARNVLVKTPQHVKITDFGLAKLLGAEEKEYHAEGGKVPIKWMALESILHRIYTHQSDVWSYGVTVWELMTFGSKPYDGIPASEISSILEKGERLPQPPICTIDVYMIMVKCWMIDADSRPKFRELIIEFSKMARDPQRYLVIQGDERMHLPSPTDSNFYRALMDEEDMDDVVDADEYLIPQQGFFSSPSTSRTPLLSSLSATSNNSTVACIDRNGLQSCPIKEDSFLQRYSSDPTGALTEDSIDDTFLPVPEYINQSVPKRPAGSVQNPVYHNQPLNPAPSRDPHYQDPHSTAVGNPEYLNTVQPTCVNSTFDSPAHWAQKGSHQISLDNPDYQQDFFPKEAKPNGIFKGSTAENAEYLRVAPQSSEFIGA

For this test, the target named is EGFR Kinase (Homo sapiens, UniProt P00533). The experiment in a line: EGFR inhibitory activity test (HTRF kinEASE STK S1 kinase assay). It is filed as biochemical. The settings on record: replicate wells, read-out: IC50(nM), Inhibitory Activity of Compounds on EGFR Kinase. How it is done:
In a pilot study, the compounds disclosed herein were screened for their EGFR inhibitory activity. The Cisbio Research Product HTRF kinEASE STK S1 kinase assay/inhibitor screening Kit, can detect the generation of the phosphorylated substrate. Kinase, biotinylated substrate and ATP were first added into buffer solution, and the phosphorylated biotinylated substrates were formed by enzyme reaction. Then, to the above solution was added europium-labeled anti-phospho-site specific antibodies and XL665-labeled avidin. The Specific combinations of antibody with antigen, and biotin with avidin, bring the europium and XL665 closer together and resonance energy transferred. The signals at 620 nm and 665 nm were detected, and the activity of the kinase was evaluated by the ratio of the two signals value.
Consider `COc1cc2ncnc(Nc3ccc(F)c(Cl)c3)c2cc1OCCCN1CC2OCCN(Cc3ccccc3)C2C1` (stereo not shown) [Example 16, 6-(3-(4-benzylhexahydropyrrolo[3,4-b][1,4]oxazin-6(2H)-yl)propoxy)-N-(3-chloro-4-fluorophenyl)-7-methoxyquinazolin-4-amine], for which the IC50 lay within 1 to 10 nM.

For `COc1cc2ncnc(Nc3ccc(F)c(Cl)c3)c2cc1OCCCN1CCC2CCN(C)C2C1` (stereo not shown) [Example 18, N-(3-chloro-4-fluorophenyl)-7-methoxy-6-(3-(1-methylhexahydro-1H-pyrrolo[2,3-c]pyridin-6(2H)-yl)propoxy)quinazolin-4-amine], the 50% inhibitory concentration (IC50) fell in the range of 0.001 to 0.1 nM.

Consider `COc1cc2ncnc(Nc3ccc(F)c(Cl)c3)c2cc1OCCCN1CC2OCCOC2C1` (stereo not shown) [Example 6, N-(3-chloro-4-fluorophenyl)-7-methoxy-6-(3-(tetrahydro-2H-[1,4]dioxino[2,3-c]pyrrol-6(3H)-yl)propoxy)quinazolin-4-amine], for which the IC50 lay in the range of 0.001 to 0.1 nM.

Consider `CCN1CC2CCCN(CCCOc3cc4c(Nc5ccc(F)c(Cl)c5)ncnc4cc3OC)C2C1` (stereo not shown) [Example 29, N-(3-chloro-4-fluorophenyl)-6-(3-(6-ethyloctahydro-1H-pyrrolo[3,4-b]pyridin-1-yl)propoxy)-7-methoxyquinazolin-4-amine], for which the 50% inhibitory concentration (IC50) was in the range of 0.001 to 0.1 nM.

Regarding `COc1cc2ncnc(Nc3ccc(F)c(Cl)c3)c2cc1OCCCN1CCCC2OCCCC21` (stereo not shown) [Example 31, N-(3-chloro-4-fluorophenyl)-6-(3-(hexahydro-2H-pyrano[3,2-b]pyridin-5(3H)-yl)propoxy)-7-methoxyquinazolin-4-amine], the IC50 was in the range of 0.001 to 0.1 nM.

Regarding `COc1cc2ncnc(Nc3ccc(F)c(Cl)c3)c2cc1OCCCN1CC2OCCN(C)C2C1` (stereo not shown) [Example 15, N-(3-chloro-4-fluorophenyl)-7-methoxy-6-(3-(4-methylhexahydropyrrolo[3,4-b][1,4]oxazin-6(2H)-yl)propoxy)quinazolin-4-amine], the IC50 lay within 0.101 to 1 nM.

Regarding `COc1cc2ncnc(Nc3ccc(F)c(Cl)c3)c2cc1OCCCN1CCC2OCCOC2C1` (stereo not shown) [Example 36, N-(3-chloro-4-fluorophenyl)-6-(3-(hexahydro-[1,4]dioxino[2,3-c]pyridin-6(7H)-yl)propoxy)-7-methoxyquinazolin-4-amine], the IC50 was in the range of 1 to 10 nM.

With `COc1cc2ncnc(Nc3ccc(F)c(Cl)c3)c2cc1OCCCN1CCC2CNCC21` (stereo not shown) [Example 13, N-(3-chloro-4-fluorophenyl)-6-(3-(hexahydropyrrolo[3,4-b]pyrrol-1(2H)-yl)propoxy)-7-methoxyquinazolin-4-amine], the concentration for half-maximal inhibition (IC50) lay in the range of 0.001 to 0.1 nM.

In the case of `COc1cc2ncnc(Nc3ccc(F)c(Cl)c3)c2cc1OCCCN1CCC2CCNC2C1` (stereo not shown) [Example 17, N-(3-chloro-4-fluorophenyl)-6-(3-(hexahydro-1H-pyrrolo[2,3-c]pyridin-6(2H)-yl)propoxy)-7-methoxyquinazolin-4-amine], the IC50 was 0.001 to 0.1 nM.

Regarding `COc1cc2ncnc(Nc3ccc(F)cc3)c2cc1OCCCN1CC2CNCC2C1` (stereo not shown) [Example 41, N-(4-fluorophenyl)-6-(3-(hexahydropyrrolo[3,4-c]pyrrol-2(1H)-yl)propoxy)-7-methoxyquinazolin-4-amine], the IC50 fell in the range of 0.001 to 0.1 nM.

In the case of `COc1cc2ncnc(Nc3ccc(F)c(Cl)c3)c2cc1OCCCN1CCc2c(c(C)nn2C)C1` [Example 38, N-(3-chloro-4-fluorophenyl)-6-(3-(1,3-dimethyl-6,7-dihydro-1H-pyrazolo[4,3-c]pyridin-5(4H)-yl)propoxy)-7-methoxyquinazolin-4-amine], the IC50 lay within 0.101 to 1 nM.

Take `COc1cc2ncnc(Nc3ccc(F)c(Cl)c3)c2cc1OCCCN1CCn2cnnc2C1` [Example 3, N-(3-chloro-4-fluorophenyl)-6-(3-(5,6-dihydro-[1,2,4]triazolo[4,3-a]pyrazin-7(8H)-yl)propoxy)-7-methoxyquinazolin-4-amine]: the 50% inhibitory concentration (IC50) was in the range of 0.101 to 1 nM.

On to `COc1cc2ncnc(Nc3ccc(F)c(Cl)c3)c2cc1OCCCN1CCC2COCC2C1` (stereo not shown) [Example 37, N-(3-chloro-4-fluorophenyl)-6-(3-(hexahydrofuro[3,4-c]pyridin-5(3H)-yl)propoxy)-7-methoxy quinazolin-4-amine], for which the half-inhibitory concentration (IC50) was 1 to 10 nM.

For the molecule `COc1cc2ncnc(Nc3ccc(F)c(Cl)c3)c2cc1OCCCN1CCc2nn(C)c(C)c2C1` [Example 39, N-(3-chloro-4-fluorophenyl)-6-(3-(2,3-dimethyl-6,7-dihydro-2H-pyrazolo[4,3-c]pyridine-5(4H)-yl)propoxy)-7-methoxyquinazolin-4-amine], the half-maximal inhibitory concentration (IC50) lay within 1 to 10 nM.

For `COc1cc2ncnc(Nc3ccc(F)cc3)c2cc1OCCCN1CCC2COCC2C1` (stereo not shown) [Example 43, N-(4-fluorophenyl)-6-(3-(hexahydrofuro[3,4-c]pyridin-5(3H)-yl)propoxy)-7-methoxyquinazolin-4-amine], the IC50 lay in the range of 0.101 to 1 nM.

`COc1cc2ncnc(Nc3ccc(F)c(Cl)c3)c2cc1OCCCN1CC2COCC2C1` (stereo not shown) [Example 22, N-(3-chloro-4-fluorophenyl)-7-methoxy-6-(3-(tetrahydro-1H-furo[3,4-c]pyrrol-5(3H)-yl)propoxy) quinazolin-4-amine]: the 50% inhibitory concentration (IC50) lay in the range of 0.001 to 0.1 nM.

`COc1cc2ncnc(Nc3ccc(F)c(Cl)c3)c2cc1OCCCN1CCC2CN(C(C)=O)CC21` (stereo not shown) [Example 14, 1-(1-(3-((4-((3-chloro-4-fluorophenyl)amino)-7-methoxyquinazolin-6-yl)oxy)propyl)hexahydropyrrolo[3,4-b]pyrrol-5(1H)-yl)ethanone]: the IC50 lay in the range of 1 to 10 nM.

Take `C#Cc1cc(Nc2ncnc3cc(OC)c(OCCCN4CC5OCCOC5C4)cc23)ccc1F` (stereo not shown) [Example 9, N-(3-ethynyl-4-fluorophenyl)-7-methoxy-6-(3-(tetrahydro-2H-[1,4]dioxino[2,3-c]pyrrol-6(3H)-yl)propoxy)quinazolin-4-amine]: the half-maximal inhibitory concentration (IC50) was 1 to 10 nM.

In the case of `COc1cc2ncnc(Nc3ccc(F)c(Cl)c3)c2cc1OCCCN1C[C@@H]2C[C@]2(O)C1` [Example 4, (1R,5S)-3-(3-((4-((3-chloro-4-fluorophenyl)amino)-7-methoxyquinazolin-6-yl)oxy)propyl)-3-azabicyclo[3.1.0]hexan-1-ol], the IC50 was in the range of 0.001 to 0.1 nM.

`COc1cc2ncnc(Nc3ccc(F)c(Cl)c3)c2cc1OCCCN1C[C@@H]2C[C@]2(N(C)C)C1` [Example 5]: the IC50 fell in the range of 0.101 to 1 nM.

Take `COc1cc2ncnc(Nc3ccc(F)c(Cl)c3)c2cc1OCCCN1CC2C(C1)C2N(C)C` (stereo not shown) [Example 32, N-(3-chloro-4-fluorophenyl)-6-(3-(6-(dimethylamino)-3-azabicyclo[3.1.0]hexan-3-yl)propoxy)-7-methoxyquinazolin-4-amine]: the IC50 lay within 1 to 10 nM.

Take `COc1cc2ncnc(Nc3ccc(F)c(Cl)c3)c2cc1OCCCN1CCC2CCCCC2C1` (stereo not shown) [Example 35, N-(3-chloro-4-fluorophenyl)-7-methoxy-6-(3-(octahydroisoquinolin-2(1H)-yl)propoxy)quinazolin-4-amine]: the half-inhibitory concentration (IC50) is 0.001 to 0.1 nM.

In the case of `COc1cc2ncnc(Nc3ccc(F)cc3)c2cc1OCCCN1CCn2cnnc2C1` [Example 42, 6-(3-(5,6-dihydro-[1,2,4]triazolo[4,3-a]pyrazin-7(8H)-yl)propoxy)-N-(4-fluorophenyl)-7-methoxyquinazolin-4-amine], the half-inhibitory concentration (IC50) fell in the range of 1 to 10 nM.

On to `COc1cc2ncnc(Nc3ccc(F)c(Cl)c3)c2cc1OCCCN1CCC2NCCC2C1` (stereo not shown) [Example 19, N-(3-chloro-4-fluorophenyl)-6-(3-(hexahydro-1H-pyrrolo[3,2-c]pyridin-5(6H)-yl)propoxy)-7-methoxyquinazolin-4-amine], for which the IC50 fell in the range of 0.001 to 0.1 nM.

On to `C#Cc1cc(Nc2ncnc3cc(OC)c(OCCCN4CCn5cnnc5C4)cc23)ccc1F` [Example 45, 6-(3-(5,6-dihydro-[1,2,4]triazolo[4,3-a]pyrazin-7(8H)-yl)propoxy)-N-(3-ethynyl-4-fluorophenyl)-7-m ethoxyquinazolin-4-amine], for which the IC50 lay within 0.101 to 1 nM.

For the molecule `COc1cc2ncnc(Nc3ccc(F)c(Cl)c3)c2cc1OCCCN1CC2CNCC2C1` (stereo not shown) [Example 11, N-(3-chloro-4-fluorophenyl)-6-(3-(hexahydropyrrolo[3,4-c]pyrrol-2(1H)-yl)propoxy)-7-methoxyquinazolin-4-amine], the IC50 is 0.001 to 0.1 nM.

For the molecule `COc1cc2ncnc(Nc3ccc(F)c(Cl)c3)c2cc1OCCCN1CC2CCCN(C)C2C1` (stereo not shown) [Example 28, N-(3-chloro-4-fluorophenyl)-7-methoxy-6-(3-(1-methylhexahydro-1H-pyrrolo[3,4-b]pyridin-6(2H)-yl)propoxy)quinazolin-4-amine], the IC50 was in the range of 0.001 to 0.1 nM.

For the molecule `COc1cc2ncnc(Nc3ccc(F)c(Cl)c3)c2cc1OCCCN1C[C@@H]2OCCO[C@H]2C1` [Example 40, N-(3-chloro-4-fluorophenyl)-7-methoxy-6-(3-((4aS,7aS)-tetrahydro-2H-[1,4]dioxino[2,3-c]pyrrol-6(3H)-yl)propoxy)quinazolin-4-amine], the IC50 lay within 0.001 to 0.1 nM.

In the case of `COc1cc2ncnc(Nc3ccc(F)c(Cl)c3)c2cc1OCCCN1CC2CN(C)CC2C1` (stereo not shown) [Example 12, N-(3-chloro-4-fluorophenyl)-7-methoxy-6-(3-(5-methylhexahydropyrrolo[3,4-c]pyrrol-2(1H)-yl)propoxy)quinazolin-4-amine], the half-inhibitory concentration (IC50) lay within 0.101 to 1 nM.

`COc1cc2ncnc(Nc3ccc(F)cc3)c2cc1OCCCN1CC2OCCOC2C1` (stereo not shown) [Example 7, N-(4-fluorophenyl)-7-methoxy-6-(3-(tetrahydro-2H-[1,4]dioxino[2,3-c]pyrrol-6(3H)-yl)propoxy) quinazolin-4-amine]: the IC50 is 1 to 10 nM.

Take `C#Cc1cc(Nc2ncnc3cc(OC)c(OCCCN4CC5CNCC5C4)cc23)ccc1F` (stereo not shown) [Example 44, N-(3-ethynyl-4-fluorophenyl)-6-(3-(hexahydropyrrolo[3,4-c]pyrrol-2(1H)-yl)propoxy)-7-methoxyquinazolin-4-amine]: the IC50 lay within 0.101 to 1 nM.
